# Data published in US8304002B2, “Fenugreek extract for treating human and animal diseases involving flagellate parasites” (Setubio S.A.S., priority 2008, dated 2012).
# Legend:
# [1] = tested on: Histomonas meleagridis; assay: Anti-Histomonas activity: in vitro culture with parasite counts; assay type: cell-based
# Procedure: The strain of H. meleagridis was isolated from the caeca of turkeys experimentally infested with eggs of the H. gallinarum worm. The parasites were cultured at 39° C. in sealed glass tubes containing 3 mL of supplemented M199 medium. They were transferred twice a week. To do this, 80 μL of preculture were added to 3 mL of fresh medium previously heated in a water bath to 39° C. Counting was performed in a Malassez counting chamber after staining with 0.4% trypan blue. The 100 fields of the chamber were counted. […] was tested at different concentrations. A parasite count was performed three times after 72 h incubation. A negative control was included by replacing the extract with the solvent only (sterile water). To study the dose-dependent effect, each test was performed in triplicate, with different concentrations, counting the parasites at 24 h, 48 h and 72 h. A negative control was included by replacing the extract with the solvent only.
# [2] = tested on: MRC5 cells; assay: Cytotoxicity test (protein assay, SRB) on MRC5 cells; assay type: cell-based, human; conditions: MRC5, 100 μg/mL to 2 mg/mL, 24 h and 48 h
# Procedure: The MRC5 cells (primary human foetal lung fibroblasts) were cultured in 25 or 75 cm^2 dishes in supplemented MEM (Minimum Essential Medium, Life Technologies Gibco), in a chamber at 37° C. and % CO2. 500 mL of MEM was supplemented with foetal calf serum (10% final), glutamine 2 mM (5 mL), antibiotics (5 mL penicillin/streptomycin i.e. […], 0.5 mL ampicillin i.e. 10 μg/ml, 0.25 mL gentamicin i.e. 25 μg/mL) and fungicides (5 mL fungizone i.e. 2.5 μg/mL). When the cells reached confluence, they were trypsinised and transferred into 96-well plates at […]. They were then incubated at 37° C., 5% CO2 for 24 h before starting the test. The plates were duplicated for a protein assay after 24 and 48 h. This test consists of culturing the cells in the presence of extracts, then precipitating total proteins to determine their concentration. The MRC5 cells were put into contact with 200 μL of supplemented MEM containing different concentrations of the extracts to be tested. […] Each dilution was tested in triplicate to produce a mean. Two controls were used: • a negative control: cells in the supplemented MEM only • a positive control: cells in the presence of a mixture of the supplemented MEM and 50% DMSO The plates were then incubated at 37° C., 5% CO2 for 24 or 48 h. […] The contents of the wells were homogenised and the optical density read at 490 nm. […]
# [3] = tested on: Histomonas meleagridis; assay: Regrowth of H. meleagridis after transfer into fresh medium following 72 h treatment; assay type: cell-based
# Procedure: After 72 h of treatment with […] and DMZ, the parasites were put into fresh medium for 96 h to analyse the histomonicidal effect (FIG. 5).
# [4] = tested on: bacterial flora associated with H. meleagridis; assay: Effect on the bacterial flora associated with H. meleagridis; assay type: cell-based; conditions: 48 h of culture, FIG. 4
# Procedure: An aliquot of H. meleagridis culture was taken. Four serial dilutions (10^-4 to 10^-7) were made in liquid tryptone soya medium. 20 μL of each dilution was spread onto tryptone soya agar medium. Incubation at 37° C. overnight. The effects of different concentrations of […] and of DMZ on the associated bacterial flora after 48 h of culture were then compared. The results are expressed in number of bacteria per mL (FIG. 4). The extract […] was histomonicidal from 1 mg/mL. It had no effect on the associated bacterial flora. Dimetridazole is histomonicidal from 25 μg/mL at 72 h. On the other hand it is bactericidal from 400 μg/mL.
# [5] = 25 μg/mL for 72 h, then fresh medium 96 h
Compound,"inhibition at 2000 µg/mL ([1]; Histomonas meleagridis, 2 mg/mL, at 72 h, read-out: inhibition of proliferation of H. meleagridis) [%]",effect on the proliferation of H. meleagridis ([1]; at 2 mg/mL),cytotoxicity for human cells in culture [2],"regrowth of the culture ([3]; 12.5 μg/mL for 72 h, then fresh medium 96 h)","growth relative to the control after transfer [3, 5]","regrowth of the culture [3, 5]","regrowth of the culture ([3]; 400 μg/mL for 72 h, then fresh medium 96 h)","regrowth of the culture ([3]; 1 mg/mL for 72 h, then fresh medium 96 h)","concentration from which histomonicidal (confirmed by regrowth) ([3]; 72 h treatment, then fresh medium 96 h) [µg/mL]",histomonicidal or histomonostatic (confirmed by regrowth) ([3]; at 25 μg/mL),concentration from which bactericidal [4] [µg/mL],"effect on growth of H. meleagridis (in words) ([1]; FIG. 3, tested in parallel S520/DMZ)",concentration from which histomonicidal ([1]; at 72 h) [µg/mL],"concentration at which parasiticidal ([1]; growth of H. meleagridis, FIG. 3) [µg/mL]"
O=C(N/N=C/c1ccc([N+](=O)[O-])o1)c1cc([N+](=O)[O-])cc([N+](=O)[O-])c1O [Nifursol],38,slightly histomonostatic,not toxic,–,–,–,–,–,–,–,–,–,–,–
"Cc1ncc([N+](=O)[O-])n1C [DMZ, dimetridazole]",–,–,–,regrowth,about 30%,regrowth,No regrowth,No regrowth,≥ 400,histomonostatic,≥ 400,parasitostatic,≥ 25,25
